The term inhibition denotes the change of the read-out against control, counted positive when it falls. The term pKi denotes the negative decadic logarithm of the Ki, by convention in mol/L. A low value points to a large Ki.

This note sets out measurements from ChEMBL document CHEMBL2429832, “N-substituted 8-aminopentacyclo[5.4.0.0(2,6).0(3,10).0(5,9)]undecanes as σ receptor ligands with potential neuroprotective effects” (Bioorg Med Chem, 2013).

One experiment deals with D(2) dopamine receptor (Homo sapiens, UniProt P14416). The experiment in a line: Inhibition of dopamine D2 receptor (unknown origin) at 10 uM by PDSP assay relative to control.
Experiment [1] addresses T1, Muscarinic acetylcholine receptor M1 (Homo sapiens) (UniProt P11229).
T1 sequence (whole entry): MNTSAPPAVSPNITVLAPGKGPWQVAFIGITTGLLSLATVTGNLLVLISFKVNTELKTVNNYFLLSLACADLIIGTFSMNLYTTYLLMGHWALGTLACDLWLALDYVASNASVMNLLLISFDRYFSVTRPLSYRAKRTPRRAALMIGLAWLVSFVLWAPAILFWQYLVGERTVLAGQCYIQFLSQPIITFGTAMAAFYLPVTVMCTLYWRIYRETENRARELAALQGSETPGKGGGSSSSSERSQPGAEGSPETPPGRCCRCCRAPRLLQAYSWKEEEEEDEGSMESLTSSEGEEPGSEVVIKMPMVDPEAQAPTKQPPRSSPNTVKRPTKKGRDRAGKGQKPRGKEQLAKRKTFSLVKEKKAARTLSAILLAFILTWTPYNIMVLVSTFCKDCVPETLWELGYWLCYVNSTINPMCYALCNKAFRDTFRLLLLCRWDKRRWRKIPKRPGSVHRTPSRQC
The experiment in a line: Inhibition of muscarinic M1 receptor (unknown origin) at 10 uM by PDSP assay relative to control.

For experiment [2], the target named is T2, Alpha-2A adrenergic receptor (Homo sapiens) (UniProt P08913).
T2 sequence (whole entry): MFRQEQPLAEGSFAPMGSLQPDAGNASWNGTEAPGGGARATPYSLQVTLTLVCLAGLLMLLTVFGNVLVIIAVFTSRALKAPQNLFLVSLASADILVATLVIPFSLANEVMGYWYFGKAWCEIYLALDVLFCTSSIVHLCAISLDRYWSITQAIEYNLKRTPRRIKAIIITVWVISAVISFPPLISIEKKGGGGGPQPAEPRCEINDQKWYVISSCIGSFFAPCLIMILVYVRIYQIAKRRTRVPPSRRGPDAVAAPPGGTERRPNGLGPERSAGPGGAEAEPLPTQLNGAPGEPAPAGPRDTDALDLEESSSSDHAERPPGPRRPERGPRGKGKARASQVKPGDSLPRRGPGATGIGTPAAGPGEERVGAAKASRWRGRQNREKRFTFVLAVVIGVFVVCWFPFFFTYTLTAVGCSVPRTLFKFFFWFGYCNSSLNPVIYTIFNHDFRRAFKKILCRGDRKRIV
The experiment in a line: Inhibition of adrenergic alpha2A receptor (unknown origin) at 10 uM by PDSP assay relative to control.

In experiment [3] the target is Sodium-dependent serotonin transporter (Homo sapiens, UniProt P31645). Kind of experiment: Displacement of [3H]-citalopram from human SERT expressed in HEK cell membranes at 10 uM relative to control. The settings on record: HEK293.
The target in experiment [4] is T3, Alpha-2B adrenergic receptor (Homo sapiens, UniProt P18089).
T3 sequence (P18089 whole entry): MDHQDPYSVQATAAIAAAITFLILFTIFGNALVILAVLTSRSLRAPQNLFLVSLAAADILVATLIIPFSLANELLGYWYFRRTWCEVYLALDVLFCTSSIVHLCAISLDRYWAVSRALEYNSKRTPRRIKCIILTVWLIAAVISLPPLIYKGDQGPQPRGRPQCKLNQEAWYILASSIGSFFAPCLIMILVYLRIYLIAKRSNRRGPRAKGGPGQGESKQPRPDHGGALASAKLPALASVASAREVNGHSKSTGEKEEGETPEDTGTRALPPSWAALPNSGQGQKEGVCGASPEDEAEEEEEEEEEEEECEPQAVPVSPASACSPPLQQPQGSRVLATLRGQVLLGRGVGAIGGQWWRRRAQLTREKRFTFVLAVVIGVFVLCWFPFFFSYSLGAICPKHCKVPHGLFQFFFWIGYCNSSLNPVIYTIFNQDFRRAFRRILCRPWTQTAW
Kind of experiment: Inhibition of adrenergic alpha2B receptor (unknown origin) by PDSP assay.

In experiment [5] the target is T4, Sodium-dependent dopamine transporter (Homo sapiens, UniProt Q01959). Kind of experiment: Displacement of [3H]-WIN-35,428 from human DAT expressed in HEK cell membranes at 10 uM relative to control. The settings on record: HEK293. On the technique in general: In a radioligand displacement assay an active substance lowers the binding of a labelled ligand.
In experiment [6] the target is Muscarinic acetylcholine receptor M3 (Homo sapiens, UniProt P20309). Kind of experiment: Inhibition of muscarinic M3 receptor (unknown origin) at 10 uM by PDSP assay relative to control.
The target in experiment [7] is T5, Muscarinic acetylcholine receptor M4 (Homo sapiens) (UniProt P08173).
T5 sequence (whole entry): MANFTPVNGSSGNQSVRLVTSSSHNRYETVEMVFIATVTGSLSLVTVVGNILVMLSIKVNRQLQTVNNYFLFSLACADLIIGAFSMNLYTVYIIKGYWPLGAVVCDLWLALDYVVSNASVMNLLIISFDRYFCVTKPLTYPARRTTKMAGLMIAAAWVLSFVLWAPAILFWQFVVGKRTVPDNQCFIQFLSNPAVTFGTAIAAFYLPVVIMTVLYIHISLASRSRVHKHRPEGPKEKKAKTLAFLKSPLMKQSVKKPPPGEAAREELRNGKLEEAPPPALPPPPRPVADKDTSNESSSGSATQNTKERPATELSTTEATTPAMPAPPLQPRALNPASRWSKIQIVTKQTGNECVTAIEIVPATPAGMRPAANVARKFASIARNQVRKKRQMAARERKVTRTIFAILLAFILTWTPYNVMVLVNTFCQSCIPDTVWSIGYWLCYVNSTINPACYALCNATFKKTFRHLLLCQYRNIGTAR
Kind of experiment: Inhibition of muscarinic M4 receptor (unknown origin) at 10 uM by PDSP assay relative to control.

The target in experiment [8] is T4, Sodium-dependent dopamine transporter. Kind of experiment: Displacement of [3H]-WIN-35,428 from human DAT expressed in HEK cell membranes. Further details: species or system HEK293.
Experiment [9] concerns the target T6, Alpha-2C adrenergic receptor (Homo sapiens) (UniProt P18825).
T6 sequence (whole entry): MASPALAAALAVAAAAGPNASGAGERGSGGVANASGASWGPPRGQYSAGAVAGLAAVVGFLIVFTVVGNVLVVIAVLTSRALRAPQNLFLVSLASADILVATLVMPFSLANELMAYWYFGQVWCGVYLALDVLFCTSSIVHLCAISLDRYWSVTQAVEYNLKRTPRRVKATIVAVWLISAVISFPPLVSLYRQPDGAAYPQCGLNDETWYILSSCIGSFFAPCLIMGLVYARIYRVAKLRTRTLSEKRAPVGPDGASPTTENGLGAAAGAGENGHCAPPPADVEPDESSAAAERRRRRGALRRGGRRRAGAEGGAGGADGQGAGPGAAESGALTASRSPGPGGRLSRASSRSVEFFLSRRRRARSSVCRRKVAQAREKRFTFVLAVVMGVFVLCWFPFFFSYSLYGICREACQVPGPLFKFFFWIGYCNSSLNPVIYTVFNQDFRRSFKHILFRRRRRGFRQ
Kind of experiment: Inhibition of adrenergic alpha2C receptor (unknown origin) at 10 uM by PDSP assay relative to control.

The next experiment concerns the target D(3) dopamine receptor (Homo sapiens, UniProt P35462). Kind of experiment: Inhibition of dopamine D3 receptor (unknown origin) at 10 uM by PDSP assay relative to control.

pKi: −log10 of the molar value. Some results are limits rather than exact numbers.

T4 sequence (Q01959 whole entry): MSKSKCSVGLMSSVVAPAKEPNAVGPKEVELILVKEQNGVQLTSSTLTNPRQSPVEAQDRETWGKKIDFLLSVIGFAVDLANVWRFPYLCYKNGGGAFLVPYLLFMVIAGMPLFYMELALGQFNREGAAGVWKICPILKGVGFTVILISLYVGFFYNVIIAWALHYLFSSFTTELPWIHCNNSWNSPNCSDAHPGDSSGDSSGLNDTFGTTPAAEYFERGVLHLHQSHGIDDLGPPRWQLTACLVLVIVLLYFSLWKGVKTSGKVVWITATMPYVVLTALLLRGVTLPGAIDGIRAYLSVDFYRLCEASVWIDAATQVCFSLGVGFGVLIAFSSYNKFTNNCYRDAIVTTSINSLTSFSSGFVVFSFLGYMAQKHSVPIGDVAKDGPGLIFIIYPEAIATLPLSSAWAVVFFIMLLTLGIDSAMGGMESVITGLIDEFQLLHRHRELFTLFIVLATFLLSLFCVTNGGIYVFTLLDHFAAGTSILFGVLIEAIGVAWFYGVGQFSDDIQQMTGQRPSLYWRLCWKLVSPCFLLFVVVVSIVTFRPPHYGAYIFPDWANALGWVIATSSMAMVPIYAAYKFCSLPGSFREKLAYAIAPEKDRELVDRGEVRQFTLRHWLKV
Chain of Muscarinic acetylcholine receptor M3 (P20309 whole entry, looked up): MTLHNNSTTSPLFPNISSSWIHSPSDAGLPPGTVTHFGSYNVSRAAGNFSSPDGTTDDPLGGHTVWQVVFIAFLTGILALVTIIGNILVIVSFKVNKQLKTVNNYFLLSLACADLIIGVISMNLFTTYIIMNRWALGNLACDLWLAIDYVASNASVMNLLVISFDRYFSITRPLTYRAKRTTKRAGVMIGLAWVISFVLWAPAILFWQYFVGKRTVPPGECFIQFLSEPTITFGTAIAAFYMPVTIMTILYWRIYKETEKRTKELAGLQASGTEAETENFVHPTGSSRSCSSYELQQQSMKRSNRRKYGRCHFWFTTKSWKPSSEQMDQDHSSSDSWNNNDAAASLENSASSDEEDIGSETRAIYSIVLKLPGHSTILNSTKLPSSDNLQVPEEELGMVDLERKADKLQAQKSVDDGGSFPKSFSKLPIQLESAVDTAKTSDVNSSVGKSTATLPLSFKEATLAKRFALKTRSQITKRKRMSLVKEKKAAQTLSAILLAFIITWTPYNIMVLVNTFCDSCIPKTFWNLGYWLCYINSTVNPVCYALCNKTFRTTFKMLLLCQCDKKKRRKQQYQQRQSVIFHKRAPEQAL
Chain of Sodium-dependent serotonin transporter (P31645 whole entry, looked up): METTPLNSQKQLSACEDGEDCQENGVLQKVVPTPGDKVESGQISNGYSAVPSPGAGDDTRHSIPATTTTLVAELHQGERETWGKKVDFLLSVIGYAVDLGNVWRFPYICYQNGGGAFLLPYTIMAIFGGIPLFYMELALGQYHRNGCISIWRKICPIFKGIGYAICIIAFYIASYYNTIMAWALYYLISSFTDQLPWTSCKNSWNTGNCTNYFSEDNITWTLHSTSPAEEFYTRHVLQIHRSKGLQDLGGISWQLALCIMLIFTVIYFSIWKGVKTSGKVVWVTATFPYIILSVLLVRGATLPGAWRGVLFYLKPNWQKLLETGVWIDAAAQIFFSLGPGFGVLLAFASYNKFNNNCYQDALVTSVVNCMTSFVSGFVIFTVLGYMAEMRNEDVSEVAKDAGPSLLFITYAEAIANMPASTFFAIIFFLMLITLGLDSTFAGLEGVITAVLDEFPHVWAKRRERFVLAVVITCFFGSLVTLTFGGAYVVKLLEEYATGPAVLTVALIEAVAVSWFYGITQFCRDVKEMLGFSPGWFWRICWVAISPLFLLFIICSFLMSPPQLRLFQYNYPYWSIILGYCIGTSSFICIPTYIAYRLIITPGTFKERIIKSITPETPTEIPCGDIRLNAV
Chain of D(2) dopamine receptor (P14416 whole entry): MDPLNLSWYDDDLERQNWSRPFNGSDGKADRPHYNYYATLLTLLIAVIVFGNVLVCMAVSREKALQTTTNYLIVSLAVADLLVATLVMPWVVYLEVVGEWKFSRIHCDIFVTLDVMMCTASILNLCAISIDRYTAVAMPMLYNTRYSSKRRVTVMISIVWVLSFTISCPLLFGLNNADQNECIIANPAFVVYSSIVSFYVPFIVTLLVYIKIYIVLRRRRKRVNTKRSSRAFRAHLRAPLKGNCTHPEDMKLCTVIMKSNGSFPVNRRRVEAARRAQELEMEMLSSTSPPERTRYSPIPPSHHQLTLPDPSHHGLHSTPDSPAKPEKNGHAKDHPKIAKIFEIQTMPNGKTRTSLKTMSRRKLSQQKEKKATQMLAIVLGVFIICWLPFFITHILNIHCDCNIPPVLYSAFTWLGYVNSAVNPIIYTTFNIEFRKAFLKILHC
Chain of D(3) dopamine receptor (P35462 whole entry): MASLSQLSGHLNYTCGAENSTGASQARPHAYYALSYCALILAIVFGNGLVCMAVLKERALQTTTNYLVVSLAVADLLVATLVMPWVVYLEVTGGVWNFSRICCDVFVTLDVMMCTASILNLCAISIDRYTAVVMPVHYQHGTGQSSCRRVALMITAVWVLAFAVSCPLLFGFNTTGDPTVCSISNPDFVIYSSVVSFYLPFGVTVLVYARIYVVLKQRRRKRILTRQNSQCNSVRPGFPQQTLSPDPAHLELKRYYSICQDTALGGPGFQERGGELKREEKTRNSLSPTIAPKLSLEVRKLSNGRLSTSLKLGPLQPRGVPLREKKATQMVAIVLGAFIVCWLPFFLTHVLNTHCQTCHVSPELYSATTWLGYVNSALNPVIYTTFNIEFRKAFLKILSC

In the case of `C1CCC(CN[C@H]2C3C4CC5C6C4CC3C6C52)CC1` (stereo partly specified), the inhibition (against D(2) dopamine receptor; in experiment [1]; in experiment [2]; in experiment [3]; in experiment [5]; in [6]) was less than 50% in each case. In addition, the pKi in experiment [4] is 5.60.
`CN(CCc1ccccc1)[C@H]1C2C3CC4C5C3CC2C5C41` (stereo partly specified): the inhibition in experiment [1], in experiment [2], in experiment [3], in [5], in experiment [7] and in experiment [6] was less than 50% in each case. Moreover, the pKi in [4] is 5.89.
Take `COc1cc(CN[C@H]2C3C4CC5C6C4CC3C6C52)cc(OC)c1OC` (stereo partly specified): the inhibition (against D(2) dopamine receptor; in experiment [1]; in [2]; in experiment [5]; in experiment [7]; in experiment [6]) was less than 50% throughout. Moreover, the pKi in experiment [4] was 6.18.
Consider `C1C2C3CC4C2C2C1C3[C@H](NCC13C5C6C7C5C1C7C63)C42` (stereo partly specified), for which the inhibition in experiment [2] and in experiment [3] was less than 50% in each case. Also, the values for the pKi in experiment [8] and in experiment [4] were 6.90 and 6.00, respectively.
Turning to `c1cc2c(cc1CN[C@H]1C3C4CC5C6C4CC3C6C51)OCO2` (stereo partly specified), the inhibition (against D(2) dopamine receptor; in experiment [1]; in experiment [2]; in experiment [5]; in experiment [6]) was less than 50% in each case. The pKi in experiment [4] is 5.49.
For `CN(CCc1ccccn1)[C@H]1C2C3CC4C2C(=O)C2C4C3C21` (stereo partly specified), the inhibition (against D(2) dopamine receptor; in experiment [1]; in experiment [2]; in experiment [3]; in experiment [5]; in [7]) was less than 50% in each case. The inhibition (in experiment [9]; in experiment [6]; against D(3) dopamine receptor) was less than 50% each time. The same molecule had a negative logarithm of the Ki (pKi) in experiment [4] of less than 5.00.
